The nature of the data set: Estimation of metal content in the mixed glucosamine sulphate metal salt (Inductively Coupled Plasma Method). In kind it is physicochemical. Particulars: ICP; for Potassium content: measured at 766.491 nm; for Sodium content: measured at 589.592 nm. As to the method:
Estimation of Metal Content in the Mixed Glucosamine Sulphate Metal Salt The sodium content in the mixed glucosamine sulphate sodium salt or the potassium content in the mixed glucosamine sulphate potassium salt respectively is estimated using Inductively Coupled Plasma Method. The sodium content was measured at 589.592 nm and the potassium content was measured at 766.491 nm. [table]

In the case of “Glucosamine Sulphate Potassium Salt (Low Potassium Content) [Example 2]”, the Potassium content is listed as 7.16%. Further, under “listed as compound I (M+K)”, the Potassium content is 7.16%.

For the substance “Glucosamine Sulphate Sodium Salt (Low Sodium Content) [Example 1]”, the Sodium content is on record as 4.22%. For the setting “listed as compound I (M=Na)”, the Sodium content is listed as 4.22%.

The record behind these values is US6812223B2, “Crystalline glucosamine sulfate metal salts and processes for preparing the same” (Nicholas Piramal India Limited, priority 2000, dated 2004).
